According to paper PMC10610545, “Preclinical Evaluation of an Imidazole-Linked Heterocycle for Alzheimer’s Disease” (Pharmaceutics, 2023):
Where a name gives a salt, the structure may show the parent alone.

Experiments:
[1] = system: imidazoline I2 receptors (I2-IR); assay: Competition binding against [3H]2-BFI, membranes from post-mortem human frontal cortex; conditions: for Selectivity I2/α2: antilog (pKi I2-IR − pKi α2-AR); for [3H]-2-BFI I2 pKi (One Site): monophasic fit; for [3H]-2-BFI I2 pKi (Two Sites), high affinity (pKiH) / [3H]-2-BFI I2 pKi (Two Sites), low affinity (pKiL): two-site model; for [3H]-2-BFI I2 pKi (Two Sites), high affinity (pKiH): high-affinity site; for [3H]-2-BFI I2 pKi (Two Sites), low affinity (pKiL): low-affinity site
Description: (§1) The inhibition constant (Ki) for each compound was obtained and is expressed as the corresponding pKi. The selectivity for these two receptors was expressed by the I2/α2 index, calculated as the antilogarithm of the […] between pKi values for I2-IR and pKi values for α2-AR.
(§2) Preparation of cellular membranes.
(§3) Human brain samples were obtained at autopsy in the Basque Institute of Legal Medicine, Bilbao, Spain. Samples from the prefrontal cortex (Brodmann’s area 9) were dissected at the time of autopsy and immediately stored at -70 °C until assay. The study was developed in compliance with policies of research and ethical review boards for postmortem brain studies.
(§4) To obtain cellular membranes (P2 fraction) the different samples were homogenized using an ultraturrax in 10 volumes of homogenization buffer (0.25 M sucrose, 5 mM Tris–HCl, pH 7.4).
(§5) The crude homogenate was centrifuged for 5 min at 1000 g (4 °C) and the supernatant was centrifuged again for 10 min at 40,000 g (4 °C). The resultant pellet was washed twice in 5 volumes of homogenization buffer and recentrifuged in similar conditions. Protein content was measured according to the method of Bradford using BSA as standard.
(§6) Competition Binding Assays.
(§7) The pharmacological activity of the compounds was evaluated through competition binding studies against the I2-IR selective radioligand [3H]2-BFI or the α2-adrenergic receptor selective radioligand [3H]RX821002. Specific binding was measured in 0.25 mL aliquots (50 mM Tris-HCl, pH 7.5) containing 100 µg of membranes, which were incubated in 96-well plates either with […]
(§8) Incubations were terminated by separating free ligand from bound ligand by rapid filtration […]
(§9) counted for radioactivity by liquid scintillation spectrometry using a MicroBeta TriLux counter (PerkinElmer). Specific binding was determined and plotted as a function of the compound concentration. Nonspecific binding was determined in the presence of idazoxan (10–5 M), a compound with well stablished affinity for I2-IR and α2-adrenergic receptors, in [3H]2-BFI and [3H]RX821002 assays. To obtain the inhibition constant (Ki) analyses of competition experiments were performed by nonlinear regression using the GraphPad Prism program. Ki values were normalized to pKi values. I2-IR/α2 selectivity index was calculated as the antilogarithm of the difference between pKi values for I2-IR and pKi values for α2-ARs.

[2] = target: α2-adrenergic receptor (α2-AR); assay: Competition binding against [3H]RX821002, membranes from post-mortem human frontal cortex
Description: as §1, §2, §3, §4, §5, §6, §7, §8, §9

[3] = PAMPA-BBB permeation assay; assay type: in vitro ADME, porcine; conditions: pig, PBS/EtOH (70:30), mean ± SD, read-out: Permeability Pe
Experimental: In vitro Blood-Brain Barrier Permeation Assay
To evaluate the brain penetration of the different compounds, a parallel artificial membrane permeation assay for blood-brain barrier was used, following the method described by Di et al.1 The in vitro permeability (Pe) of fourteen commercial drugs (see Table S1) through lipid extract of porcine brain membrane together with the test compounds were determined. Commercial drugs and assayed compounds were tested using a mixture of PBS:ETOH (70:30). Assay validation was made by comparing the experimental permeability with the reported values of the commercial drugs by bibliography and lineal correlation between experimental and reported permeability of the fourteen commercial drugs using the parallel artificial membrane permeation […]
From this equation and taking into account the limits established by Di et al. for BBB permeation, we established the ranges of permeability […]
predictive penetration in the CNS used as references.
1 Di, L.; Kerns, E. H.; Fan, K.; McConnell, O. J.; and Carter, G. T. High throughput artificial membrane permeability assay for blood-brain barrier.

Row | Selectivity I2/α2 [1] | [3H]-2-BFI I2 pKi (One Site) [1] | [3H]-RX821002 α2 pKi [2] | Ki ([1]; corresponds to pKiH, read-out: Ki of the high-affinity I2 site) [nM] | [3H]-2-BFI I2 pKi (Two Sites), high affinity (pKiH) [1] | [3H]-2-BFI I2 pKi (Two Sites), low affinity (pKiL) [1] | Papp [3] [×10⁻⁶ cm/s] | pKi (exp) α2 ([2]; Table S3, new ligands and known I2-IR ligands) | pKi (exp) I2 ([1]; Table S2, new ligands and known I2-IR ligands) | SMILES
1 | – | 5.49 ± 0.14 | 5.24 ± 0.26 | – | – | – | 16.2 ± 0.9 | – | – | Cl.c1ccc2nc(-n3ccnc3)ccc2c1 [LSL35, 1-(Quinoline-2-yl)-1H-imidazole hydrochloride]
2 | – | 6.10 ± 0.25 | 3.97 ± 0.25 | – | – | – | – | – | – | c1ccc2c(c1)OCC(c1ncc[nH]1)O2 (stereo not drawn) [LSL39, 2-(2,3-Dihydrobenzo[1, 4]dioxin-2-yl)-1H-imidazole hydrochloride]
3 | – | 5.24 ± 0.12 | 5.32 ± 0.24 | – | – | – | 5.8 ± 0.2 | – | – | Cl.c1ccc2nc(-c3ncc[nH]3)ccc2c1 [LSL42, 2-(Quinoline-2-yl)-1H-imidazole hydrochloride]

The remaining lines, values behind:

Row | SMILES | Selectivity I2/α2 [1] | [3H]-2-BFI I2 pKi (One Site) [1] | [3H]-RX821002 α2 pKi [2] | Ki ([1]; corresponds to pKiH, read-out: Ki of the high-affinity I2 site) [nM] | [3H]-2-BFI I2 pKi (Two Sites), high affinity (pKiH) [1] | [3H]-2-BFI I2 pKi (Two Sites), low affinity (pKiL) [1] | Papp [3] [×10⁻⁶ cm/s] | pKi (exp) α2 ([2]; Table S3, new ligands and known I2-IR ligands) | pKi (exp) I2 ([1]; Table S2, new ligands and known I2-IR ligands)
4 | c1ccc(-c2ncc3cc(-n4ccnc4)ccc3n2)cc1 [CR4056] | 1995 | 5.95 ± 0.11 | – | – | – | – | – | – | –
5 | c1ccc2oc(C3=NCCN3)cc2c1 [Compound 2-BFI, 2-(2-benzofuranyl)-2-imidazoline] | 5370 | 8.31 ± 0.13 | 4.58 ± 0.22 | 1 | 9.08 ± 0.22 | 7.15 ± 0.31 | – | – | –
6 | c1ccc2c(c1)OCC(C1=NCCN1)O2 (stereo not drawn) [Idazoxan] | – | 7.41 ± 0.63 | 7.92 ± 0.07 | – | 7.87 ± 0.74 | 5.76 ± 0.57 | – | – | –
7 | Cl.c1ccc2[nH]c(-n3ccnc3)cc2c1 [LSL29, 2-Imidazol-1-yl-1H-indole hydrochloride] | – | 4.57 ± 0.23 | 4.99 ± 0.18 | – | 8.54 ± 0.71 | 4.09 ± 0.22 | 10.8 ± 0.4 | – | –
8 | C(=C\c1ccccc1)/C1=NCCN1 [Tracizoline, reference compound] | – | – | – | – | – | – | – | 4.330 | 7.580
